# Reference: US4483872A, “Non-classical topical treatment for glaucoma using n-substituted sulfonamides” (University of Iowa Research Foundation, priority 1983, dated 1984)
# Legend:
# [1] = system: eye of normal adult white rabbits; experiment: IOP after topical drops of 1% solution, Examples 6 and 7; type: in vivo, rabbit; set-up: unit: mm Hg; settings: 3 drops
# Procedure: A 1% solution of 1-(N-hydroxy-N-methylsulfamido)-4-chlorobenzene and a 1% solution of 1-(N-hydroxy-N-methyl-sulfamido)-4-nitrobenzene were prepared for two separate experiments, examples 6 and 7 resepctively. The vehicle consisted of aqueous pH 7.2 phosphate buffer. One drop, followed by two drops each at one minute intervals, was applied to one eye of normal adult white rabbits. Six rabbits were used in example 6 and twelve rabbits in example 7. The treated eye was selected randomly, whereas, the fellow eye received placebo. The observer was masked. The intraocular pressure (IOP) was measured with a Digilab pneumotonometer, initially and every ten minutes for 180 minutes in each experiment following instillation of the anti-glaucoma agent. A drop of local anesthetic was applied to each eye just prior to making the measurement.
# [2] = system: eye of normal adult white rabbits; experiment: Salted rabbit test: intraocular pressure (IOP) after topical drops; type: in vivo
# Procedure: In particular, an initial drop from the test formulation followed by two drops at one minute intervals are applid to one eye of each of six adult white rabbits that had been maintained on a diet containing 0.5% sodium. The treated eye was selected randomly, whereas, the fellow eye received placebo; the observer was masked. Results identified a small but significant reduction of intraocular pressure in the treated eye at 30, 60 and 120 minutes.
# One drop, followed by two drops each at one minute intervals, was applied to one eye of normal adult white rabbits. Six rabbits were used in the experiment. The treated eye was selected randomly, whereas, the fellow eye received placebo. The observer was masked. The intraocular pressure (IOP) was measured with a Digilab Pneumotonometer, initially and every ten minutes for 120 minutes following instillation of the anti-glaucoma agent. A drop of local anesthetic was applied just prior to making the measurement.
# IOP* Changes = (IOPDET - IOPCET) - (IOPDEO - IOPCEO)
# IOPDET = measurement (mm Hg) of dosed eye at time t.
# IOPDEO = measurement (mm Hg) of dosed eye at t = 0, but prior to
# […] = IOP measurement (mm Hg) of control (nondosed) eye at time t
# IOPCEO = IOP measurement (mm Hg) of control eye at time t = 0
# *Difference in IOP measurements (mm Hg) between both eyes just prior to
# dosing at t = 0 (i.e., IOPDEO - IOPCEO).
# carbonic anhydrase = experiment: in vitro carbonic anhydrase activity, simplified method of Maren; type: biochemical
# Procedure: The procedure required the use of a specialized glass reaction vessel to which was added 0.4 ml phenol red indicator (0.00125%), 0.25 to 0.30 ml heparinized blood containing 2 enzyme units of carbonic anhydrase, 0.1 ml drug solution (0.01 to 100 mg/L) and 0.1 ml of 0.255 M carbonate buffer. […] Water was added to the reaction vessel which was kept in a water bath at 0±0.25° C. The reaction cell was constantly purged with CO2 at a rate of 200 to 250 ml/min. Each reagent was added at a specified time and in a specified order. […] The time required for the reaction begins with the addition of carbonate buffer and was completed with the indicator changed from red to yellow. […] Reaction time was the time for the uncatalyzed reaction time. The reaction times remain constant once equilibration has been attained. By varying the time before adding the carbonate buffer and then determining the reaction time, the equilibration time can be accurately determined. The reaction time was averaged over three determinations. A range of drug concentrations were reacted and the concentration of drug causing 50% inhibition of enzyme (I50) read from a plot of reaction time against drug concentration. (If two enzyme units are added, then the concentration of drug yielding a reaction time corresponding to the activity of one unit is taken as the I50). An enzyme unit (e.u.) was calculated from: [formula]
smiles,measurement,setting,value
CN(O)S(=O)(=O)c1ccc([N+](=O)[O-])cc1 [1-(N-hydroxy-N-methyl-sulfamido)-4-nitrobenzene],"IOP changes, Ave. change","[1]; Example 7, 0 min",0.167
same,"IOP changes, Ave. change","[1]; Example 7, 10 min",0.333
same,"IOP changes, Ave. change","[1]; Example 7, 20 min",-0.333
same,"IOP changes, Ave. change","[1]; Example 7, 30 min",-.667
same,"IOP changes, Ave. change","[1]; Example 7, 40 min, probability less than 0.05",-1.67
same,"IOP changes, Ave. change","[1]; Example 7, 50 min, probability less than 0.025",-1.83
same,"IOP changes, Ave. change","[1]; Example 7, 60 min, probability less than 0.025 (footnote)",1.67
same,"IOP changes, Ave. change","[1]; Example 7, 70 min, probability less than 0.025",-2.0
same,"IOP changes, Ave. change","[1]; Example 7, 80 min, probability less than 0.05",-1.167
same,"IOP changes, Ave. change","[1]; Example 7, 90 min",0.2
same,"IOP changes, Ave. change","[1]; Example 7, 100 min",-0.5
same,"IOP changes, Ave. change","[1]; Example 7, 110 min",-0.33
same,"IOP changes, Ave. change","[1]; Example 7, 120 min",-1.00
CN(O)S(=O)(=O)c1ccc(Cl)cc1 [1-(N-hydroxy-N-methylsulfamido)-4-chlorobenzene],"IOP changes, Ave. change","[1]; Example 6, 0 min",0.417
same,"IOP changes, Ave. change","[1]; Example 6, 20 min",0.617
same,"IOP changes, Ave. change","[1]; Example 6, 40 min",1.00
same,"IOP changes, Ave. change","[1]; Example 6, 60 min, probability less than 0.025",-1.25
same,"IOP changes, Ave. change","[1]; Example 6, 80 min",0.167
same,"IOP changes, Ave. change","[1]; Example 6, 100 min",0.667
same,"IOP changes, Ave. change","[1]; Example 6, 120 min",0.333
same,"IOP changes, Ave. change","[1]; Example 6, 140 min",-.333
same,"IOP changes, Ave. change","[1]; Example 6, 160 min",-0.25
same,"IOP changes, Ave. change","[1]; Example 6, 180 min",-0.25
"CNS(=O)(=O)c1nnc(NC(C)=O)s1 [methyl acetazolamide, N-methyl-2-acetylamino-1,3,4-thiadiazole-5-sulfonamide]","IOP difference between both eyes, Av. Chg.","[2]; 0 min, just prior to dosing (baseline, IOPDEO - IOPCEO), six rabbits",1.83 mm Hg
same,"lowering of IOP, statistical significance","[2]; 1% w/v suspension, 3 drops, all time intervals to 120 min",statistically significant at all time intervals
same,reduction of intraocular pressure,[2]; after topical administration,able to reduce intraocular pressure
same,averaged I50 (concentration of drug causing 50% inhibition of enzyme),"carbonic anhydrase; 2 enzyme units of carbonic anhydrase in heparinized blood, 0° C., averaged over three determinations",0.520 mg
same,in vitro activity,carbonic anhydrase; in vitro,inactive in vitro
same,activity relative to acetazolamide (ratio of I50 values),carbonic anhydrase; ratio 0.52/0.00914,1/60
